Results as given in ChEMBL document CHEMBL1126507, “The synthesis of novel 8a-aza-8a-homoerythromycin derivatives via the beckmann rearrangement of (9z)-erythromycin a oxime” (1993).
Converted amounts (≈) assume the structure as drawn.

Key:
Assay type in all cases: functional
[1] = test system: Escherichia coli; experiment: Minimum inhibitory concentration required for antibacterial activity against Escherichia coli MB 2884 strain;value ranges from 16-64
[2] = test system: Enterobacter cloacae; experiment: Minimum inhibitory concentration required for antibacterial activity against Enterobacter cloacae CL 4298 strain;value ranges from 32-64
[3] = test system: Haemophilus influenzae; experiment: Minimum inhibitory concentration required for antibacterial activity against Haemophilus influenzae CL 1830 strain;value ranges from 64-128
[4] = test system: Streptococcus pyogenes; experiment: Minimum inhibitory concentration required for antibacterial activity against Streptococcus pyogenes MB 2874 strain
[5] = test system: Streptococcus pneumoniae; experiment: Minimum inhibitory concentration required for antibacterial activity against Streptococcus pneumoniae CL 2883 strain
[6] = test system: Staphylococcus aureus; experiment: microbe, parasite or virus in culture
[7] = test system: Enterococcus faecalis; experiment: Minimum inhibitory concentration required for antibacterial activity against Enterococcus faecalis MB 5407 strain;value ranges from 1-2
[8] = test system: Staphylococcus epidermidis; experiment: Minimum inhibitory concentration required for antibacterial activity against Staphylococcus epidermidis MB 5414 strain
[9] = test system: Klebsiella pneumoniae; experiment: Minimum inhibitory concentration required for antibacterial activity against Klebsiella pneumoniae MB 4005 strain;value ranges from 32-64
[10] = test system: Haemophilus influenzae; experiment: Minimum inhibitory concentration required for antibacterial activity against Haemophilus influenzae MB 5363 strain;value ranges from 2-4
[11] = test system: Escherichia coli; experiment: Minimum inhibitory concentration required for antibacterial activity against Escherichia coli MB 2884 strain;value ranges from 1-2
[12] = test system: Staphylococcus aureus; experiment: Minimum inhibitory concentration required for antibacterial activity against Staphylococcus aureus MB 2865 strain;value ranges from 0.5-1
[13] = test system: Haemophilus influenzae; experiment: Minimum inhibitory concentration required for antibacterial activity against Haemophilus influenzae CL 1830 strain;value ranges from 8-16
[14] = test system: Enterococcus faecalis; experiment: Minimum inhibitory concentration required for antibacterial activity against Enterococcus faecalis MB 5407 strain;value ranges from 4-8
[15] = test system: Haemophilus influenzae; experiment: Minimum inhibitory concentration required for antibacterial activity against Haemophilus influenzae MB 5363 strain;value ranges from 0.5-2
[16] = test system: Klebsiella pneumoniae; experiment: Minimum inhibitory concentration required for antibacterial activity against Klebsiella pneumoniae MB 4005 strain;value ranges from 1-2
[17] = test system: Enterobacter cloacae; experiment: Minimum inhibitory concentration required for antibacterial activity against Enterobacter cloacae CL 4298 strain
[18] = test system: Staphylococcus epidermidis; experiment: Minimum inhibitory concentration required for antibacterial activity against Staphylococcus epidermidis MB 5414 strain;value ranges from 0.25-0.5
[19] = test system: Staphylococcus aureus; experiment: Minimum inhibitory concentration required for antibacterial activity against Staphylococcus aureus MB 2865 strain;value ranges from 0.25-1
[20] = test system: Haemophilus influenzae; experiment: Minimum inhibitory concentration required for antibacterial activity against Haemophilus influenzae CL 1830 strain;value ranges from 4-16
[21] = test system: Enterococcus faecalis; experiment: Minimum inhibitory concentration required for antibacterial activity against Enterococcus faecalis MB 5407 strain
[22] = test system: Staphylococcus epidermidis; experiment: Minimum inhibitory concentration required for antibacterial activity against Staphylococcus epidermidis MB 5414 strain;value ranges from 16-128
[23] = test system: Escherichia coli; experiment: Minimum inhibitory concentration required for antibacterial activity against Escherichia coli MB 2884 strain
[24] = test system: Haemophilus influenzae; experiment: Minimum inhibitory concentration required for antibacterial activity against Haemophilus influenzae CL 1830 strain
[25] = test system: Klebsiella pneumoniae; experiment: Minimum inhibitory concentration required for antibacterial activity against Klebsiella pneumoniae MB 4005 strain
[26] = test system: Staphylococcus aureus; experiment: Minimum inhibitory concentration required for antibacterial activity against Staphylococcus aureus MB 2865 strain;value ranges from 32-64
[27] = test system: Haemophilus influenzae; experiment: Minimum inhibitory concentration required for antibacterial activity against Haemophilus influenzae MB 5363 strain
[28] = test system: Staphylococcus aureus; experiment: Minimum inhibitory concentration required for antibacterial activity against Staphylococcus aureus MB 2865 strain

| SMILES | MIC [4] | MIC [5] | MIC [8] | MIC [17] | MIC [21] | MIC [23] | MIC [24] | MIC [25] | MIC [27] | other results |
| --- | --- | --- | --- | --- | --- | --- | --- | --- | --- | --- |
| CC[C@H]1OC(=O)[C@H](C)[C@@H](O[C@H]2C[C@@](C)(OC)[C@@H](O)[C@H](C)O2)[C@H](C)[C@@H](O[C@@H]2O[C@H](C)C[C@H](N(C)C)[C@H]2O)[C@](C)(O)C[C@@H](C)C(=O)[C@H](C)[C@@H](O)[C@]1(C)O [ERYTHROMYCIN] | ≤ 0.06 µg/mL | ≤ 0.06 µg/mL | 0.125 µg/mL (≈ 0.17 µM) |  |  |  |  |  |  | MIC [1]: 16 µg/mL (≈ 21.8 µM); MIC [2]: 32 µg/mL (≈ 43.6 µM); MIC [3]: 64 µg/mL (≈ 87.2 µM); MIC [6]: 0.125 µg/mL (≈ 0.17 µM); MIC [7]: 1 µg/mL (≈ 1.36 µM); MIC [9]: 32 µg/mL (≈ 43.6 µM); MIC [10]: 2 µg/mL (≈ 2.73 µM) |
| CC[C@H]1OC(=O)[C@H](C)[C@@H](O[C@H]2C[C@@](C)(OC)[C@@H](O)[C@H](C)O2)[C@H](C)[C@@H](O[C@@H]2O[C@H](C)C[C@H](N(C)C)[C@H]2O)[C@](C)(O)C[C@@H](C)CN(C)[C@H](C)[C@@H](O)[C@]1(C)O [AZITHROMYCIN] | ≤ 0.06 µg/mL | ≤ 0.06 µg/mL |  | 1 µg/mL (≈ 1.34 µM) |  |  |  |  |  | MIC [11]: 1 µg/mL (≈ 1.34 µM); MIC [12]: 0.5 µg/mL (≈ 0.668 µM); MIC [13]: 8 µg/mL (≈ 10.7 µM); MIC [14]: 4 µg/mL (≈ 5.34 µM); MIC [15]: 0.5 µg/mL (≈ 0.668 µM); MIC [16]: 1 µg/mL (≈ 1.34 µM); MIC [18]: 0.25 µg/mL (≈ 0.334 µM) |
| CC[C@H]1OC(=O)[C@H](C)[C@@H](O[C@H]2C[C@@](C)(OC)[C@@H](O)[C@H](C)O2)[C@H](C)[C@@H](O[C@@H]2O[C@H](C)C[C@H](N(C)C)[C@H]2O)[C@](C)(O)C[C@@H](C)N(C)C[C@H](C)[C@@H](O)[C@]1(C)O [L-701677] | ≤ 0.06 µg/mL | ≤ 0.06 µg/mL |  | 1 µg/mL (≈ 1.34 µM) | 2 µg/mL (≈ 2.67 µM) |  |  |  |  | MIC [11]: 1 µg/mL (≈ 1.34 µM); MIC [19]: 0.25 µg/mL (≈ 0.334 µM); MIC [15]: 0.5 µg/mL (≈ 0.668 µM); MIC [16]: 1 µg/mL (≈ 1.34 µM); MIC [20]: 4 µg/mL (≈ 5.34 µM); MIC [18]: 0.25 µg/mL (≈ 0.334 µM) |
| CC[C@H]1OC(=O)[C@H](C)[C@@H](O[C@H]2C[C@@](C)(OC)[C@@H](O)[C@H](C)O2)[C@H](C)[C@@H](O[C@@H]2O[C@H](C)C[C@H](N(C)C)[C@H]2O)[C@@]2(C)C[C@@H](C)N=C(O2)[C@H](C)[C@@H](O)[C@]1(C)O | 0.5 µg/mL (≈ 0.684 µM) | 2 µg/mL (≈ 2.74 µM) |  | 128 µg/mL (≈ 175 µM) | 16 µg/mL (≈ 21.9 µM) | 128 µg/mL (≈ 175 µM) | > 128 µg/mL | > 128 µg/mL | 64 µg/mL (≈ 87.6 µM) | MIC [22]: 16 µg/mL (≈ 21.9 µM); MIC [26]: 32 µg/mL (≈ 43.8 µM) |
| CC[C@H]1OC(=O)[C@H](C)[C@@H](O[C@H]2C[C@@](C)(OC)[C@@H](O)[C@H](C)O2)[C@H](C)[C@@H](O[C@@H]2O[C@H](C)C[C@H](N(C)C)[C@H]2O)[C@](C)(O)C[C@@H](C)/N=C2/O[C@@]1(C)[C@H](O)[C@H]2C | 2 µg/mL (≈ 2.74 µM) | 4 µg/mL (≈ 5.47 µM) | 16 µg/mL (≈ 21.9 µM) | 128 µg/mL (≈ 175 µM) | > 128 µg/mL | 128 µg/mL (≈ 175 µM) | > 128 µg/mL | > 128 µg/mL | 64 µg/mL (≈ 87.6 µM) | MIC [28]: 16 µg/mL (≈ 21.9 µM) |
| CC[C@H]1OC(=O)[C@H](C)[C@@H](O[C@H]2C[C@@](C)(OC)[C@@H](O)[C@H](C)O2)[C@H](C)[C@@H](O[C@@H]2O[C@H](C)C[C@H](N(C)C)[C@H]2O)[C@](C)(O)C[C@@H](C)NC(=O)[C@H](C)[C@@H](O)[C@]1(C)O | ≤ 0.06 µg/mL | ≤ 0.06 µg/mL | 0.5 µg/mL (≈ 0.668 µM) |  | 8 µg/mL (≈ 10.7 µM) | 16 µg/mL (≈ 21.4 µM) |  | 32 µg/mL (≈ 42.7 µM) | 32 µg/mL (≈ 42.7 µM) | MIC [28]: 0.5 µg/mL (≈ 0.668 µM) |
| CC[C@H]1OC(=O)[C@H](C)[C@@H](O[C@H]2C[C@@](C)(OC)[C@@H](O)[C@H](C)O2)[C@H](C)[C@@H](O[C@@H]2O[C@H](C)C[C@H](N(C)C)[C@H]2O)[C@](C)(O)C[C@@H](C)NC[C@H](C)[C@@H](O)[C@]1(C)O | ≤ 0.06 µg/mL | ≤ 0.06 µg/mL | 0.5 µg/mL (≈ 0.68 µM) | 4 µg/mL (≈ 5.44 µM) | 4 µg/mL (≈ 5.44 µM) | 2 µg/mL (≈ 2.72 µM) | 32 µg/mL (≈ 43.5 µM) | 4 µg/mL (≈ 5.44 µM) | 4 µg/mL (≈ 5.44 µM) | MIC [12]: 0.5 µg/mL (≈ 0.68 µM) |
